Results published in patent US20100184815A1 (priority 2008, published 2010).

Key:
Assay type in all cases: cell-based
[1] = target: T1, Gal-4 hPPARγ (Homo sapiens, UniProt P37231); assay: Gal4-hPPARγ transient transfection reporter assay in Cos cells; details: luciferase reporter, 24 hours with compound, scale 1-5, read-out: Gal-4 hPPAR γ EC50 (scaled number)
T1 construct: Plasmids pGal4-hPPARα, pGal4-hPPARγ, pGal4-hPPARδ and pG5-TK-pGL3 were constructed as previously described by Staels, Bart, et al., Nature 1998 Jun; 25
T1 sequence (P37231 238-505 limits assumed): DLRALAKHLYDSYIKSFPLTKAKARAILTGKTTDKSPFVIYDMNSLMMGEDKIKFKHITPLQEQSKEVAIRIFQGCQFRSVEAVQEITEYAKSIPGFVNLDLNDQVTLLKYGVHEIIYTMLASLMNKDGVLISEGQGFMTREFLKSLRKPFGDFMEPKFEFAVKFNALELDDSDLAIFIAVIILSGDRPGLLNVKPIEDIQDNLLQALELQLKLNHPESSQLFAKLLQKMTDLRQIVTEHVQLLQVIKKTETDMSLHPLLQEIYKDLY
Method: (§1) Construction of recombinant plasmids. Plasmids pGal4-hPPARα, pGal4-hPPARγ, pGal4-hPPARδ and pG5-TK-pGL3 were constructed as previously described by Staels, Bart, et al., Nature 1998 Jun. 25; 393 (6687): 790-793, by Staels (Institut Pasteur de Lille, FR).
(§2) Transient transfection assays. Cos cells were seeded in 60-mm dishes at a density of 5.5×10^5 cells/dish in Dulbecco's modified Eagle's medium (DMEM) supplemented with 10% fetal calf serum (FCS) and incubated at 37° C. for 24 hours before transfection. Cells were transfected in Opti-MEM (Gibco; Invitrogen, Carlsbad, Calif.) without FCS for 3 hours at 37° C., using polyethylenimine, with reporter and expression plasmids. The plasmid pBluescript (Stratagene, La Jolla, Calif.) was used as carrier DNA to set the final amount of DNA to 5.5 μg/dish. The pCMV-b-galactosidase expression plasmid was cotransfected as a control for transfection efficiency. Transfection was stopped by the addition of DMEM supplemented with 10% FCS, and cells were then incubated at 37° C. After 16 hours, cells were trypsinized and seeded in 96-well plates at the density of 2×10^4 cells/well and incubated for 6 hours in 10% FCS-containing DMEM. Cells were then incubated for 24 hours in DMEM containing 0.2% FCS and increasing concentrations of the compound tested or vehicle (DMSO). At the end of the experiment, cells were washed once with ice-cold PBS, lysed and the luciferase and b-galactosidase assays were performed in a luminometer and spectrophotomer. Transfection efficiencies were normalized with the b-galactosidase activity assay. Half-maximal effective concentration (EC50) was estimated using Prism software (GraphPad). All transfection experiments were performed at least three times.
(§3) In the following tables, proprietary compound EC50 values for hPPAR α, β, δ and γ are shown. The EC50 value is the concentration of a drug that induces a response halfway between the baseline and maximum, and is commonly used as a measure of drug potency. EC50 values are reported on a scale of 1 through 5, wherein the value scale is defined for each receptor as follows: […]

[2] = target: T2, Gal-4 hPPARβ/δ (Homo sapiens, UniProt Q03181); assay: Gal4-hPPARδ transient transfection reporter assay in Cos cells; details: luciferase reporter, 24 hours with compound, scale 1-5, read-out: Gal-4 hPPAR β/δ EC50 (scaled number)
T2 construct: Plasmids pGal4-hPPARα, pGal4-hPPARγ, pGal4-hPPARδ and pG5-TK-pGL3 were constructed as previously described by Staels, Bart, et al., Nature 1998 Jun; 25
T2 sequence (Q03181 171-441 limits assumed): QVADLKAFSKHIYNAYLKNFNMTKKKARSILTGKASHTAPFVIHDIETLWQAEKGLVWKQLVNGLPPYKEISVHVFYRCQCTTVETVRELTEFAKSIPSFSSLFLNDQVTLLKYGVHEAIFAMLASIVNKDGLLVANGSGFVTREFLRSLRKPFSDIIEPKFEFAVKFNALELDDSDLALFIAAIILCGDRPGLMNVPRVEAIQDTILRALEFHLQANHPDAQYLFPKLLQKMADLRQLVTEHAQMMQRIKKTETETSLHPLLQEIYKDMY
Method: as §1, §2, §3

[3] = target: T3, Gal-4 hPPARα (Homo sapiens, UniProt Q07869); assay: Gal4-hPPARα transient transfection reporter assay in Cos cells; details: luciferase reporter, 24 hours with compound, scale 1-5, read-out: Gal-4 hPPAR α EC50 (scaled number)
T3 construct: Plasmids pGal4-hPPARα, pGal4-hPPARγ, pGal4-hPPARδ and pG5-TK-pGL3 were constructed as previously described by Staels, Bart, et al., Nature 1998 Jun; 25
T3 sequence (Q07869 200-468 limits assumed): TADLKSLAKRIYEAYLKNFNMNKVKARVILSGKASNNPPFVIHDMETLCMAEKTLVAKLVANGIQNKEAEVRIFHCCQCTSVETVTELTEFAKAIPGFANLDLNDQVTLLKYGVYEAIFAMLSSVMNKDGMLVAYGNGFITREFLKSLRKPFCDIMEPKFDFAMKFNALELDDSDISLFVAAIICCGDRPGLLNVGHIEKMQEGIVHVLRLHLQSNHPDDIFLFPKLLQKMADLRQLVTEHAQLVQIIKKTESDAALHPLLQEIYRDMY
Method: as §1, §2, §3

| EC50 [1] | EC50 [2] | EC50 [3] | SMILES |
| --- | --- | --- | --- |
| > 1000 nM | > 1000 nM | 51 to 200 nM | CC(C)(Sc1ccc(C(=O)OCc2cn(Cc3ccc(SC(F)(F)F)cc3)nn2)cc1)C(=O)O [Compound 71, 2-methyl-2-(4-(((1-(4-(trifluoromethylthio)benzyl)-1H-1,2,3-triazol-4-yl)methoxy)carbonyl)phenylthio)propanoic acid] |
| > 1000 nM | > 1000 nM | 51 to 200 nM | CC(C)(Sc1ccc(C(=O)OCc2cn(Cc3ccc(OC(F)(F)F)cc3)nn2)cc1)C(=O)O [Compound 73, 2-methyl-2-(4-(((1-(4-(trifluoromethoxy)benzyl)-1H-1,2,3-triazol-4-yl)methoxy)carbonyl)phenylthio)propanoic acid] |
| > 1000 nM | > 1000 nM | 201 to 999 nM | Cc1ccc(Cn2cc([C@H](C)OC(=O)c3ccc(SC(C)(C)C(=O)O)cc3)nn2)cc1 [Compound 85, (S)-2-methyl-2-(4-((1-(1-(4-methylbenzyl)-1H-1,2,3-triazol-4-yl)ethoxy)carbonyl)phenylthio)propanoic acid] |
| > 1000 nM | > 1000 nM | 201 to 999 nM | C[C@H](OC(=O)c1ccc(SC(C)(C)C(=O)O)cc1)c1cn(Cc2ccc(C(F)(F)F)cc2)nn1 [Compound 97, (S)-2-methyl-2-(4-((1-(1-(4-(trifluoromethyl)benzyl)-1H-1,2,3-triazol-4-yl)ethoxy)carbonyl)phenylthio)propanoic acid] |
| > 1000 nM | > 1000 nM | 51 to 200 nM | CC(C)(Sc1ccc(C(=O)OCc2cn(Cc3ccc(C(F)(F)F)cc3)nn2)cc1)C(=O)O [Compound 102, 2-methyl-2-(4-(((1-(4-(trifluoromethyl)benzyl)-1H-1,2,3-triazol-4-yl)methoxy)carbonyl)phenylthio)propanoic acid] |
| 51 to 200 nM | > 1000 nM | 1 to 50 nM | C[C@@H](OC(=O)c1ccc(SC(C)(C)C(=O)O)cc1)c1cn(Cc2ccc(SC(F)(F)F)cc2)nn1 [Compound 136, 4-(1-Carboxy-1-methyl-ethylsulfanyl)-benzoic acid (R)-1-[1-(4-trifluoromethylsulfanyl-benzyl)-1H-1,2,3-triazol-4-yl]-ethyl ester] |
| > 1000 nM | > 1000 nM | 51 to 200 nM | C[C@@H](OC(=O)c1ccc(SC(C)(C)C(=O)O)cc1)c1cn(Cc2ccc(OC(F)(F)F)cc2)nn1 [Compound 137, 4-(1-Carboxy-1-methyl-ethylsulfanyl)-benzoic acid (R)-1-[1-(4-trifluoromethoxy-benzyl)-1H-1,2,3-triazol-4-yl]-ethyl ester] |
| > 1000 nM | > 1000 nM | 1 to 50 nM | C[C@H](Cc1cn(Cc2ccc(C(C)(C)C)cc2)nn1)OC(=O)c1ccc(SC(C)(C)C(=O)O)cc1 [Compound 138, 4-(1-Carboxy-1-methyl-ethylsulfanyl)-benzoic acid (R)-2-[1-(4-tert-butyl-benzyl)-1H-1,2,3-triazol-4-yl]-1-methyl-ethyl ester] |
| > 1000 nM | > 1000 nM | 1 to 50 nM | C[C@@H](OC(=O)c1ccc(SC(C)(C)C(=O)O)cc1)c1cn(Cc2cccc(C(F)(F)F)c2)nn1 [Compound 139, 4-(1-Carboxy-1-methyl-ethylsulfanyl)-benzoic acid (R)-1-[1-(3-trifluoromethyl-benzyl)-1H-1,2,3-triazol-4-yl]-ethyl ester] |
| > 1000 nM | > 1000 nM | 1 to 50 nM | C[C@@H](OC(=O)c1ccc(SC(C)(C)C(=O)O)cc1)c1cn(Cc2cc(C(F)(F)F)cc(C(F)(F)F)c2)nn1 [Compound 140, 4-(1-Carboxy-1-methyl-ethylsulfanyl)-benzoic acid (R)-1-[1-(3,5-bis-trifluoromethyl-benzyl)-1H-1,2,3-triazol-4-yl]-ethyl ester] |
| > 1000 nM | > 1000 nM | 51 to 200 nM | CC(C)(Sc1ccc(C(=O)OCCc2cn(Cc3ccc(C(C)(C)C)cc3)nn2)cc1)C(=O)O [Compound 144, 4-(1-Carboxy-1-methyl-ethylsulfanyl)-benzoic acid 2-[1-(4-tert-butyl-benzyl)-1H-1,2,3-triazol-4-yl]-ethyl ester] |
| > 1000 nM | > 1000 nM | 201 to 999 nM | Cc1ccc(Cn2cc(CCOC(=O)c3ccc(SC(C)(C)C(=O)O)cc3)nn2)cc1 [Compound 145, 4-(1-Carboxy-1-methyl-ethylsulfanyl)-benzoic acid 2-[1-(4-methyl-benzyl)-1H-1,2,3-triazol-4-yl]-ethyl ester] |
| > 1000 nM | > 1000 nM | 1 to 50 nM | CCCn1c(COC(=O)c2ccc(SC(C)(C)C(=O)O)cc2)nn(Cc2ccc(-c3ccccc3)cc2)c1=O [Compound 163, 2-(4-(((1-(biphenyl-4-ylmethyl)-5-oxo-4-propyl-4,5-dihydro-1H-1,2,4-triazol-3-yl)methoxy)carbonyl)phenylthio)-2-methylpropanoic acid] |
| > 1000 nM | > 1000 nM | 1 to 50 nM | CCCn1c(COC(=O)c2ccc(SC(C)(C)C(=O)O)cc2)nn(Cc2ccc(Br)cc2)c1=O [Compound 164, 2-(4-(((1-(4-bromobenzyl)-5-oxo-4-propyl-4,5-dihydro-1H-1,2,4-triazol-3-yl)methoxy)carbonyl)phenylthio)-2-methylpropanoic acid] |
| > 1000 nM | > 1000 nM | 51 to 200 nM | CCCn1c(COC(=O)c2ccc(SC(C)(C)C(=O)O)cc2)nn(Cc2ccc(F)cc2)c1=O [Compound 165, 2-(4-(((1-(4-fluorobenzyl)-5-oxo-4-propyl-4,5-dihydro-1H-1,2,4-triazol-3-yl)methoxy)carbonyl)phenylthio)-2-methylpropanoic acid] |
| > 1000 nM | > 1000 nM | 51 to 200 nM | CCCn1c(COC(=O)c2ccc(SC(C)(C)C(=O)O)cc2)nn(Cc2cccc(C(F)(F)F)c2)c1=O [Compound 176, 2-methyl-2-(4-(((5-oxo-4-propyl-1-(3-(trifluoromethyl)benzyl)-4,5-dihydro-1H-1,2,4-triazol-3-yl)methoxy)carbonyl)phenylthio)propanoic acid] |
| 201 to 999 nM | > 1000 nM | 1 to 50 nM | CCCn1c(COC(=O)c2ccc(SC(C)(C)C(=O)O)cc2)nn(Cc2cc(C(F)(F)F)cc(C(F)(F)F)c2)c1=O [Compound 177, 2-(4-(((1-(3,5-bis(trifluoromethyl)benzyl)-5-oxo-4-propyl-4,5-dihydro-1H-1,2,4-triazol-3-yl)methoxy)carbonyl)phenylthio)-2-methylpropanoic acid] |
| > 1000 nM | > 1000 nM | 51 to 200 nM | CCCn1c(COC(=O)c2ccc(SC(C)(C)C(=O)O)cc2)nn(Cc2ccc(SC(F)(F)F)cc2)c1=O [Compound 179, 2-methyl-2-(4-(((5-oxo-4-propyl-1-(4-(trifluoromethylthio)benzyl)-4,5-dihydro-1H-1,2,4-triazol-3-yl)methoxy)carbonyl)phenylthio)propanoic acid] |
